Format in all cases: cell-based, murine
Common to all, as to conditions: for IC50: Mus musculus

One experiment relates to NO release. Description: Nitric oxide (NO) assay: NO release in LPS-stimulated RAW264.7 macrophages (Griess reagent). The protocol:
(§1) Anti-inflammatory activity was determined in lipopolysaccharide (LPS) stimulated murine macrophages, RAW264.7 cells cultured in standard cell culture media (DMEM, Fetal bovine serum 5%) and incubated in the presence or absence of different test compounds/extracts and controls. The production of inflammatory mediators, including NO, cytokines TNFα and IL-6, were measured by established methods using commercial ELISA kits (Table 3). Each sample was tested with at least 6 concentrations (using 3 replicates; i.e., n=9), with relevant internal controls (Table 3). The cytotoxicity of each sample tested was determined by MTT assay.
(§2) Briefly, for the NO, TNFα and IL-6 assays the cultured RAW264.7 cells were counted and plated (0.8×10^5 cells/well) in 96 well plates and incubated for 48 hours. The medium was then aspirated and replaced with fresh medium followed by the addition of the test compounds. The compounds were incubated for 1 hour prior to the addition of the stimulant. The plates were then incubated for 18 hours and the supernatant analyzed for the inflammatory mediator of interest, the remaining cell viability was determined by MTT.
(§3) The data are presented as mean and standard error of mean (SEM). The dose response curves were fit using Graph Pad Prism. The 95% confidence intervals (CI) were calculated using the whole data set and give an estimate error in the IC50 value. The 95% CI for the IC50 where the IC50 was not reached in the testing concentrations require graphical extrapolation to calculate the IC50. Where the IC50 has been estimated by graphical extrapolation “˜” is used to indicate that it is an estimate and not experimentally determined, unless otherwise stated. The graphical extrapolation results in a wider 95% confidence interval.
(§4) The synergism combination index (CI) and isobologram IC50 weightings were calculated using Compsyn software. The dose response curve generated in GraphPad prism was transformed into 15 points representing the curve. These 15 points were then entered into the Compsyn program that generated a curve to fit the data points. This method was preferable to closely replicate the complete dose response curve in the synergy program. The Compsyn fit curve was then used for synergy calculations.
(§5) A CI value of less than 0.5 is considered highly synergistic, a CI of less than 1 indicates synergy, a CI of from 1.5 to 1 is considered additive, a CI of from 4 to 1.5 is indifferent and a CI greater than 4 is considered antagonism.
Background: The Griess reaction detects nitrite, a stable product of nitric oxide.

Another experiment concerns TNF-α release. The experiment in a line: TNF-α assay: TNF-α release in LPS-stimulated RAW264.7 macrophages (ELISA). The protocol: as §1, §2, §3, §4, §5
In general terms: ELISA stands for enzyme-linked immunosorbent assay.

The next experiment deals with IL-6 release. Description: IL-6 assay: IL-6 release in LPS-stimulated RAW264.7 macrophages (ELISA). The protocol:
as §1, §2, §3, §4, §5

[1] abbreviates: RAW264.7, 18 h, read-out: IC50 for NO inhibition.
The mark [2] stands for this setting: RAW264.7, 18 h, TNF-α inhibition, total concentration of the combination, Table 8, read-out: GraphPad IC50.
Where [3] appears, read: RAW264.7, TNF-α inhibition, Compusyn fit curve, Table 8, read-out: Compusyn IC50.
Setting [4] is: LPS-stimulated RAW264.7 cells, 18 h, Table 7, read-out: IC50 for TNF-α inhibition.
The mark [5] stands for this setting: RAW264.7, 18 h, IL-6 assay, total concentration of the combination, Table 11, read-out: GraphPad IC50.
The mark [6] stands for this setting: RAW264.7, IL-6 assay, Compusyn fit curve, Table 11, read-out: Compusyn IC50.
Setting [7] is: LPS-stimulated RAW264.7 cells, 18 h, Table 10, read-out: IC50 for IL-6 inhibition.
The mark [8] stands for this setting: RAW264.7, read-out: Compusyn IC50.

The structures appear in SMILES notation. Like-named read-outs stand apart in the source and are kept apart here.

A word on the IC50: it is the point on the concentration scale where inhibition reaches its midpoint. Take `CC(=N)NCc1cccc(CN)c1` [1400 W, N-(3-(Aminomethyl)benzyl)acetamidine]: the IC50 with NO release (setting [1]) came to 1.2 µg/mL.

Regarding `C=C(C)[C@@H]1CCC(C)=C[C@H]1c1c(O)cc(CCCCC)cc1O` [CBD, cannabidiol], the “TNF-α inhibition and synergy, result in words” value with TNF-α release (LPS-stimulated RAW264.7 cells) is recorded as “most active compound for TNF-α inhibition”. For the same molecule, the concentration for half-maximal inhibition (IC50) was 4.6 µg/mL with TNF-α release (setting [2]); 4.6 µg/mL with TNF-α release (setting [3]); 4.6 µg/mL in the experiment on TNF-α release (setting [4]); 1.4 µg/mL in the experiment on IL-6 release (setting [5]); 1.4 µg/mL in the experiment with IL-6 release (setting [6]); 1.4 µg/mL in the experiment on IL-6 release (setting [7]). The IC50 in the experiment with NO release (setting [1]) and in the experiment with NO release (setting [8]) was 1.4 µg/mL throughout. The “IL-6 inhibition and synergy, result in words” value in the experiment on IL-6 release (LPS-stimulated RAW264.7 cells) is on record as “most active compound for IL-6 inhibition”. Also, in the experiment on NO release (LPS-stimulated RAW264.7 cells), the “NO inhibition and synergy, result in words” value is reported as “most active compound for NO inhibition”.

Turning to `C[C@@H]1C[C@H]2[C@@H]3CCC4=CC(=O)C=C[C@]4(C)[C@@]3(F)[C@@H](O)C[C@]2(C)[C@@]1(O)C(=O)CO` [Dexamethasone, dexamethasone], the concentration for half-maximal inhibition (IC50) stood at 2.7 µg/mL with TNF-α release (setting [4]) and 0.016 µg/mL with IL-6 release (setting [7]).

Turning to `C=CC(C)(O)CCC=C(C)C` (stereo not drawn) [Linalool, linalool], the half-inhibitory concentration (IC50) in the experiment with TNF-α release (setting [2]), in the experiment on TNF-α release (setting [3]), in the experiment with TNF-α release (setting [4]), in the experiment with IL-6 release (setting [5]), with IL-6 release (setting [6]) and in the experiment with IL-6 release (setting [7]) was over 240 µg/mL in each case. Further, the half-maximal inhibitory concentration (IC50) in the experiment on NO release (setting [1]) and in the experiment with NO release (setting [8]) was over 240 µg/mL throughout. Moreover, the “Compusyn IC50” value with TNF-α release (TNF-α assay, Table 9) is over 240 µg/mL; in the experiment on IL-6 release (IL-6 assay, Table 12) it was over 240 µg/mL; with NO release (NO assay, Table 6), over 240 µg/mL.

Turning to `CCCCCc1cc(O)c2c(c1)OC(C)(C)[C@@H]1CCC(C)=C[C@@H]21` [THC, Δ-9-tetrahydrocannabinol], the IC50 with TNF-α release (setting [2]) amounted to 44 µg/mL; with TNF-α release (setting [3]) it was 45 µg/mL; in the experiment on TNF-α release (setting [4]) it was 44 µg/mL; with IL-6 release (setting [5]), 4.2 µg/mL; in the experiment with IL-6 release (setting [6]), 4.2 µg/mL; with IL-6 release (setting [7]), 4.2 µg/mL. The IC50 in the experiment with NO release (setting [1]) and in the experiment on NO release (setting [8]) was 6.5 µg/mL each time.
